Measured values from publication PMC9097471, “Development of Selective Phosphatidylinositol 5-Phosphate 4-Kinase γ Inhibitors with a Non-ATP-competitive, Allosteric Binding Mode” (Journal of Medicinal Chemistry, 2022).

How the values were obtained:
PI5P4Kα = test system: PI5P4Kα; set-up: method as in ref 30 (a number printed in a supplementary file, which may have a reference list of its own: not looked up in the article's list); details: 32P-ATP/PI5P incorporation; cited from earlier work
PI5P4Kβ = target: T1, PI5P4Kβ (Homo sapiens, UniProt P78356); experiment: Thermal shift assay; details: read-out: ΔTm PI5P4Kβ, thermal shift, compound 63 μM
T1 sequence (P78356 1-416): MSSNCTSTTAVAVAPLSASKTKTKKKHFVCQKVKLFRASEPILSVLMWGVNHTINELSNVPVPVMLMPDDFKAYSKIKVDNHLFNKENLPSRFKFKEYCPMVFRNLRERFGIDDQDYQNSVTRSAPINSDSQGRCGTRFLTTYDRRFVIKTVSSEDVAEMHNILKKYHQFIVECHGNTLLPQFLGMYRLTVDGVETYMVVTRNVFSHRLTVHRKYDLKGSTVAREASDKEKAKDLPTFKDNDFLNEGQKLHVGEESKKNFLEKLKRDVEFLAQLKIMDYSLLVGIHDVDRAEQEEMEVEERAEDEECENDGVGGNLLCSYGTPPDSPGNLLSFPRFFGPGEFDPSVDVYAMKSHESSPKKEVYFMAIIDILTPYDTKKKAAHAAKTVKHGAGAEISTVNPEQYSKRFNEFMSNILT

Lck = Lck (Homo sapiens, UniProt P06239); experiment: Kinase panel, radiometric 33P filter binding; details: read-out: % activity remaining
CHK1 = CHK1 (Homo sapiens, UniProt O14757); experiment: Kinase panel, radiometric 33P filter binding; details: read-out: % activity remaining
Text: (§1) filter binding assay using 33P-g-ATPat the MRC PPU International Centre for Kinase Profiling, University of

TLK1 = TLK1 (Homo sapiens, UniProt Q9UKI8); experiment: Kinase panel, radiometric 33P filter binding; details: read-out: % activity remaining
Text: as §1

MST2 = MST2 (Homo sapiens, UniProt Q13188); experiment: Kinase panel, radiometric 33P filter binding; details: read-out: % activity remaining
PRK2 = PRK2 (Homo sapiens, UniProt Q16513); experiment: Kinase panel, radiometric 33P filter binding; details: read-out: % activity remaining
Text: as §1

MKK1 = MKK1 (Homo sapiens, UniProt Q02750); experiment: Kinase panel, radiometric 33P filter binding; details: read-out: % activity remaining
PLK1 = PLK1 (Homo sapiens, UniProt P53350); experiment: Kinase panel, radiometric 33P filter binding; details: read-out: % activity remaining
Text: as §1

YES1 = YES1 (Homo sapiens, UniProt P07947); experiment: Kinase panel, radiometric 33P filter binding; details: read-out: % activity remaining
AMPK (hum) = AMPK (hum) (Homo sapiens, UniProt Q13131); experiment: Kinase panel, radiometric 33P filter binding; details: read-out: % activity remaining
Text: as §1

IRAK4 = IRAK4 (Homo sapiens, UniProt Q9NWZ3); experiment: Kinase panel, radiometric 33P filter binding; details: read-out: % activity remaining
GCK = GCK (Homo sapiens, UniProt Q12851); experiment: Kinase panel, radiometric 33P filter binding; details: read-out: % activity remaining
Text: as §1

MNK2 = MNK2 (Homo sapiens, UniProt Q9HBH9); experiment: Kinase panel, radiometric 33P filter binding; details: read-out: % activity remaining
JNK1 = JNK1 (Homo sapiens, UniProt P45983); experiment: Kinase panel, radiometric 33P filter binding; details: read-out: % activity remaining
Text: as §1

MKK6 = MKK6 (Homo sapiens, UniProt P52564); experiment: Kinase panel, radiometric 33P filter binding; details: read-out: % activity remaining
HIPK2 = HIPK2 (Homo sapiens, UniProt Q9H2X6); experiment: Kinase panel, radiometric 33P filter binding; details: read-out: % activity remaining
Text: as §1

TIE2 = TIE2 (Homo sapiens, UniProt Q02763); experiment: Kinase panel, radiometric 33P filter binding; details: read-out: % activity remaining
MEKK1 = MEKK1 (Homo sapiens, UniProt Q13233); experiment: Kinase panel, radiometric 33P filter binding; details: read-out: % activity remaining
Chain of MEKK1 (Q13233 whole entry): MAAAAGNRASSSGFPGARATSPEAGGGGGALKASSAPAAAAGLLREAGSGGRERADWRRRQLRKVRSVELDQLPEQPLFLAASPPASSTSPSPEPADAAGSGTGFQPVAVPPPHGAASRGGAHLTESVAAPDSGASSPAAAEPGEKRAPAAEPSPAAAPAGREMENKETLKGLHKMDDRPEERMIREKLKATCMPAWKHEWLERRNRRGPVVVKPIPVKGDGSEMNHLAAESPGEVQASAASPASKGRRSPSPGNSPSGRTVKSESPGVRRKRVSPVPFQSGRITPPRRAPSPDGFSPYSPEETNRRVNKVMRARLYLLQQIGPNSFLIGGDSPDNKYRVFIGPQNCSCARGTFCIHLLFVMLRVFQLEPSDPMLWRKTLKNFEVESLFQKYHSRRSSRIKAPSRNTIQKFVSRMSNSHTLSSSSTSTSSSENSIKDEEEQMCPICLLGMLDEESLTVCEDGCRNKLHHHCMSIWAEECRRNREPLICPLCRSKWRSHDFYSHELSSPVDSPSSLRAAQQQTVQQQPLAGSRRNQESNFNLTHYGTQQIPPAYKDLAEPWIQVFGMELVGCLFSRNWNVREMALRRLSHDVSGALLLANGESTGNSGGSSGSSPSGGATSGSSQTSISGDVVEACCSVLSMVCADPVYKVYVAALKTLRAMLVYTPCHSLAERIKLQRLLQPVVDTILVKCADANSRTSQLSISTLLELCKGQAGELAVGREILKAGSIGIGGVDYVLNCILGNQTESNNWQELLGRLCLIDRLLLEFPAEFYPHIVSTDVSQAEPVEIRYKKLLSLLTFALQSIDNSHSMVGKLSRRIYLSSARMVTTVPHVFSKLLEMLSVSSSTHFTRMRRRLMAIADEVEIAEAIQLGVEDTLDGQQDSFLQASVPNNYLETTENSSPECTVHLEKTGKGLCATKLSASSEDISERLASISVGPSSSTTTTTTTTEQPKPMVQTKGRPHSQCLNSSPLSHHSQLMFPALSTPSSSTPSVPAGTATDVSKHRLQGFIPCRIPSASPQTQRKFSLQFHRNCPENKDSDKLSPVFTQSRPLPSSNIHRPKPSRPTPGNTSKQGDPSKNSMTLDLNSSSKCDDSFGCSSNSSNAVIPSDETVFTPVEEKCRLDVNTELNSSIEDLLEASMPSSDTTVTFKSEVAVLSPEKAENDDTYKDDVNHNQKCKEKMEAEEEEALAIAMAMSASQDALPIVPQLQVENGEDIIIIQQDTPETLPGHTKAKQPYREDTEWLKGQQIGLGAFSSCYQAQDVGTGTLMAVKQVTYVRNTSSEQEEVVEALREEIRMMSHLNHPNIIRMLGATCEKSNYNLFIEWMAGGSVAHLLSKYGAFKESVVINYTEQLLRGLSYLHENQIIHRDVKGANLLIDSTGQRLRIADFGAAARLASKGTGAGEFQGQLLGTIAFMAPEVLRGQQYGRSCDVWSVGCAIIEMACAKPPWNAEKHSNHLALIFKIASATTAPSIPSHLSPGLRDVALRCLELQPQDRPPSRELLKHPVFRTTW
Text: as §1

Chain of JNK1 (P45983 whole entry): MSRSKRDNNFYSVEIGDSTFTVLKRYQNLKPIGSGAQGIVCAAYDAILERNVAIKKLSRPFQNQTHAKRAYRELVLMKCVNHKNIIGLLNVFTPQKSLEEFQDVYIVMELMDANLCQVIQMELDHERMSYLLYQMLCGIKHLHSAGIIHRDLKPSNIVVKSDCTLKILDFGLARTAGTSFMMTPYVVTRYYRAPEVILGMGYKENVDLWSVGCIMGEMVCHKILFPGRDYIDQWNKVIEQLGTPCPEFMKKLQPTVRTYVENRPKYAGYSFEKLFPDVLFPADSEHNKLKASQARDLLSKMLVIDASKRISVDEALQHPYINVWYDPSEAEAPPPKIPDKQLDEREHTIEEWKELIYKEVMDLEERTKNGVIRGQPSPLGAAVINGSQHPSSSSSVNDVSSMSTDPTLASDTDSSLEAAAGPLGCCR
Chain of TLK1 (Q9UKI8 whole entry): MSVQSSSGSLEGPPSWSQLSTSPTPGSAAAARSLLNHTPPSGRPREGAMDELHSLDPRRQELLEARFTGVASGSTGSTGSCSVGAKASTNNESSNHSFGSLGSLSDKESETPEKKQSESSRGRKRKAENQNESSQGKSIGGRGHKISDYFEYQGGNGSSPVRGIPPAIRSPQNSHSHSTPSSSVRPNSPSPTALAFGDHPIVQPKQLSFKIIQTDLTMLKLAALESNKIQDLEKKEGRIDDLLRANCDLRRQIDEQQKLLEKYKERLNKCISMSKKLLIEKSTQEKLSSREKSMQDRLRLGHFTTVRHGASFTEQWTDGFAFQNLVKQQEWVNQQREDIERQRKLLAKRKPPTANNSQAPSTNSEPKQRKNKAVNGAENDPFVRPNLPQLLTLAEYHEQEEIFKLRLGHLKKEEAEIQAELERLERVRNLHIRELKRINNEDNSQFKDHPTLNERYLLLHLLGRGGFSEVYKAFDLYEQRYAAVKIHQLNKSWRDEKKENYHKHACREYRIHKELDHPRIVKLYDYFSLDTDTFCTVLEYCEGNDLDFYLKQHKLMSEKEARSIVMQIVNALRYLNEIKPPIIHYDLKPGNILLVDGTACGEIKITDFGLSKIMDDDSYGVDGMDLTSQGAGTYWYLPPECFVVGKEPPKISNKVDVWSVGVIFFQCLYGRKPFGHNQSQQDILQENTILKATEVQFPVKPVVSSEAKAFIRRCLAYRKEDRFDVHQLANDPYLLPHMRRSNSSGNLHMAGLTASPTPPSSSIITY
Chain of PRK2 (Q16513 whole entry): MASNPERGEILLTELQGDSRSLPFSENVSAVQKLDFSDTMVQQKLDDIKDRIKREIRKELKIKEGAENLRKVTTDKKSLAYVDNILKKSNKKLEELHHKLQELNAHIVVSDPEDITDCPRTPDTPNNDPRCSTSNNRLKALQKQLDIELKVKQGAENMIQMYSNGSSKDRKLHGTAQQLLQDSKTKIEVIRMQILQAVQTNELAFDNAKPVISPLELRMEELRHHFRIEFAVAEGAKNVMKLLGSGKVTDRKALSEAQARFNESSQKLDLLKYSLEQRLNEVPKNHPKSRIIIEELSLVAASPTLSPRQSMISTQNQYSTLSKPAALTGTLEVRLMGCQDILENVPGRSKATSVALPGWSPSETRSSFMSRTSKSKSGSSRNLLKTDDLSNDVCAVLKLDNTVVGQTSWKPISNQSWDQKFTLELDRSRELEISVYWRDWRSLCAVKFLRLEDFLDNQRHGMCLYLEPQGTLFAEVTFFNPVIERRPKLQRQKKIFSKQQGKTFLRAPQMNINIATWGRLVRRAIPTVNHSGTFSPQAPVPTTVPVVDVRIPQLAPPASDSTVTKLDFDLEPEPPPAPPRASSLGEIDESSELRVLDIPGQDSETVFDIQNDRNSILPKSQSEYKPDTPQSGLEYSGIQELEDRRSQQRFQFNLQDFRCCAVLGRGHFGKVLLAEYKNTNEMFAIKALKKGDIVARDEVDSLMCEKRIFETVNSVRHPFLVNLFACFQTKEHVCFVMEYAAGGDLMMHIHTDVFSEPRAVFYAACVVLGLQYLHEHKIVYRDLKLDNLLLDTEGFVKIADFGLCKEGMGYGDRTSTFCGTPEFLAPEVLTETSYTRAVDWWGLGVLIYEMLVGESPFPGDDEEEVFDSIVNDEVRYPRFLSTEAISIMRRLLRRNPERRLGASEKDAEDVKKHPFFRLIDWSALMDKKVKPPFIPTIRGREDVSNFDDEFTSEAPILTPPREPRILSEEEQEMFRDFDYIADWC
Chain of MST2 (Q13188 whole entry): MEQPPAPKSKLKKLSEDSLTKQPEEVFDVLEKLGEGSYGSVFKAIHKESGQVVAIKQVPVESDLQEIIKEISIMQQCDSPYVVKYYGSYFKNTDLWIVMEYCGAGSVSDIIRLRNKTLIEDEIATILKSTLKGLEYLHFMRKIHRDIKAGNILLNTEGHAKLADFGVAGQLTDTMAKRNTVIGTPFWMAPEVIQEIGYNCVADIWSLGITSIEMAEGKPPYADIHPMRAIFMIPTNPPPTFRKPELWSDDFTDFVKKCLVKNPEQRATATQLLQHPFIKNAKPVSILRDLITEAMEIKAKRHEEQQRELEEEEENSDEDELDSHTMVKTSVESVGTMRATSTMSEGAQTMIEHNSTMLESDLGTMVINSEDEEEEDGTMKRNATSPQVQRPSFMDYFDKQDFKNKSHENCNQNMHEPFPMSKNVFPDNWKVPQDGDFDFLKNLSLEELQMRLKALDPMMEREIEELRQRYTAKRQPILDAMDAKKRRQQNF
Chain of MKK6 (P52564 whole entry): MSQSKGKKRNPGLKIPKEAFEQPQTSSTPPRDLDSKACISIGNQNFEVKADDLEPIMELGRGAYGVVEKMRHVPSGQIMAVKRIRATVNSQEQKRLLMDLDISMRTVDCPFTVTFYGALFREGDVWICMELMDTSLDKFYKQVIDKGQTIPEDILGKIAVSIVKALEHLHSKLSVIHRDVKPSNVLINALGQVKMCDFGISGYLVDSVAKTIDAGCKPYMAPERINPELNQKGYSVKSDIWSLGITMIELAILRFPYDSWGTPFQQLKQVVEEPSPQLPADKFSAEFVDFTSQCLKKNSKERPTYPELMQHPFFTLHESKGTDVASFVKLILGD
Chain of CHK1 (O14757 whole entry): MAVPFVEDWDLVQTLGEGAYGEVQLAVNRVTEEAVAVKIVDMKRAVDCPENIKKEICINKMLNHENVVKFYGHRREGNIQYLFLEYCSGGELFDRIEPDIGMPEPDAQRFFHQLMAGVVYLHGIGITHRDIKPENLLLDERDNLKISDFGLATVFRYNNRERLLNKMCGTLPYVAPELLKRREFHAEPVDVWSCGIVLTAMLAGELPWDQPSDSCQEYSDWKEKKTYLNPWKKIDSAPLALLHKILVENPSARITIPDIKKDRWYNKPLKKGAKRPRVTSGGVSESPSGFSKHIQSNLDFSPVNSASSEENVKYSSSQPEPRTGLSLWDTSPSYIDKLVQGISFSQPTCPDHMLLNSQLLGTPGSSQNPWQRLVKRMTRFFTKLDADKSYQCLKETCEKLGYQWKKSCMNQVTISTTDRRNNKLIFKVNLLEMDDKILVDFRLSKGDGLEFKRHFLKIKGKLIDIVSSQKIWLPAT

Row | SMILES | IC50 (PI5P4Kα) | ΔTm at 63 µM (PI5P4Kβ) | remaining activity at 10 µM (Lck) | remaining activity at 10 µM (CHK1) | remaining activity at 10 µM (TLK1) | remaining activity at 10 µM (MST2) | remaining activity at 10 µM (PRK2) | remaining activity at 10 µM (MKK1) | remaining activity at 10 µM (PLK1) | remaining activity at 10 µM (YES1) | remaining activity at 10 µM (AMPK (hum)) | remaining activity at 10 µM (IRAK4) | remaining activity at 10 µM (GCK) | remaining activity at 10 µM (MNK2) | remaining activity at 10 µM (JNK1) | remaining activity at 10 µM (MKK6) | remaining activity at 10 µM (HIPK2) | remaining activity at 10 µM (TIE2) | remaining activity at 10 µM (MEKK1)
1 | FC(F)(F)c1ccccc1-c1nc(NCc2cccs2)c2ccccc2n1 [Compound 1, NIH-12848, reference compound] | > 100 µM | 0.6 ± 0.3 °C |  |  |  |  |  |  |  |  |  |  |  |  |  |  |  |  | 
2 | CC(C)c1ccccc1-c1nc(NCc2ccccn2)c2c(ccn2C)n1 [Compound 40] |  |  | 102% | 96% | 115% | 115% | 83% | 92% | 97% | 115% | 88% | 114% | 93% | 117% | 86% | 90% | 114% | 89% | 68%
